Among the data in patent publication US20250122219A1 (priority 2023, published 2025) are EC50 and CC50 values, retold here.

SMILES strings stand for the structures.

The subject of data set [1] is HIV-1 (IIIB). The experiment in a line: Antiviral assay in MT-4 cells. To be noted: Human immunodeficiency virus 1, MT4, 120 h; HIV-1 IIIB in MT-4 cells, 5 days incubation, Cell Titer Glo; read-out: MT4 EC50. It counts as cell-based. In short, it runs like this: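 Read-out: CellTiter-Glo luminescence after 5 days at 37 °C, reflecting survival of MT-4 cells infected with HIV-1 IIIB (1:250 fresh stock dilution) versus mock-infected. Compounds serially diluted into RPMI with 10% FBS; AZT at 5 μM served as positive control.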
On the technique in general: In ATP-based viability assays light output follows the ATP content of the culture.

Data set [2] can be described thus: Cytotoxicity assay in MT-4 cells. It counts as cell-based. As to conditions: human; uninfected MT-4 cells, 5 days incubation, Cell Titer Glo; read-out: MT4 CC50. The method in brief:
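Viability read by Cell Titer Glo luminescence after 5 days at 37 °C. MT-4 cells, not infected, in complete RPMI (10% FBS), received compound dilution series. Base cytotoxicity set with […] puromycin.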

Usually EC50 stands for the concentration at which the effect is half-maximal. Broadly, the CC50 is the concentration at which the toxic effect on the cells reaches its halfway point. Consider `CCCCCCCCCOC(=O)OCOc1c2n(cc(C(=O)NCc3ccc(F)cc3F)c1=O)[C@@H]1CN(C2=O)[C@@H](C)CC[C@]12CC(OC)=NO2` [Example 187, (((3′S,5S,7′R)-10′-((2,4-difluorobenzyl)carbamoyl)-3-methoxy-3′-methyl-1′,11′-dioxo-1′,4′,5′,11′-tetrahydro-3′H,4H,7′H-spiro[isoxazole-5,6′-[2,7]methanopyrido[1,2-a][1,4]diazonin]-12′-yl)oxy)methyl nonyl carbonate], for which the EC50 in data set [1] stood at 3.25 nM. For the same compound, the CC50 at 5 days in data set [2] turned out to be 43900 nM.

With `CCCCCCCCCCOC(=O)OCOc1c2n(cc(C(=O)NCc3ccc(F)cc3F)c1=O)[C@@H]1CN(C2=O)[C@@H](C)CC[C@]12CC(C)=NO2` [Example 188, decyl ((((3′S,5S,7′R)-10′-((2,4-difluorobenzyl)carbamoyl)-3,3′-dimethyl-1′,11′-dioxo-1′,4′,5′,11′-tetrahydro-3′H,4H,7′H-spiro[isoxazole-5,6′-[2,7]methanopyrido[1,2-a][1,4]diazonin]-12′-yl)oxy)methyl) carbonate], the EC50 in data set [1] was 1.55 nM. Besides, the half-maximal cytotoxic concentration (CC50) at 5 days in data set [2] was 38500 nM.

`CCCCCCCCCCOC(=O)OCOc1c2n(cc(C(=O)NCc3ccc(F)cc3F)c1=O)[C@@H]1CN(C2=O)[C@@H](C)CC[C@]12CC(OC)=NO2` [Example 189, decyl ((((3′S,5S,7′R)-10′-((2,4-difluorobenzyl)carbamoyl)-3-methoxy-3′-methyl-1′,11′-dioxo-1′,4′,5′,11′-tetrahydro-3′H,4H,7′H-spiro[isoxazole-5,6′-[2,7]methanopyrido[1,2-a][1,4]diazonin]-12′-yl)oxy)methyl) carbonate]: in data set [1], the EC50 is 3.54 nM. The CC50 at 5 days in data set [2] is at least 50000 nM.

Consider `CCCCCCCCCCCCOC(=O)OCOc1c2n(cc(C(=O)NCc3ccc(F)cc3F)c1=O)[C@@H]1CN(C2=O)[C@@H](C)CC[C@]12CC(C)=NO2` [Example 190, (((3′S,5S,7′R)-10′-((2,4-difluorobenzyl)carbamoyl)-3,3′-dimethyl-1′,11′-dioxo-1′,4′,5′,11′-tetrahydro-3′H,4H,7′H-spiro[isoxazole-5,6′-[2,7]methanopyrido[1,2-a][1,4]diazonin]-12′-yl)oxy)methyl dodecyl carbonate], for which the EC50 in data set [1] stood at 0.495 nM. Moreover, in data set [2], the cytotoxic concentration (CC50) at 5 days is at least 50000 nM.

For the compound `CCCCCCCCCCCCOC(=O)OCOc1c2n(cc(C(=O)NCc3ccc(F)cc3F)c1=O)[C@@H]1CN(C2=O)[C@@H](C)CC[C@]12CC(OC)=NO2` [Example 191, (((3′S,5S,7′R)-10′-((2,4-difluorobenzyl)carbamoyl)-3-methoxy-3′-methyl-1′,11′-dioxo-1′,4′,5′,11′-tetrahydro-3′H,4H,7′H-spiro[isoxazole-5,6′-[2,7]methanopyrido[1,2-a][1,4]diazonin]-12′-yl)oxy)methyl dodecyl carbonate], in data set [1], the half-maximal effective concentration (EC50) was determined as 1.67 nM. In addition, the cytotoxic concentration (CC50) at 5 days in data set [2] is at least 50000 nM.

For `CCCCCCCCCCCCCCCCOC(=O)OCOc1c2n(cc(C(=O)NCc3ccc(F)cc3F)c1=O)[C@@H]1CN(C2=O)[C@@H](C)CC[C@]12CC(C)=NO2` [Example 194, (((3′S,5S,7′R)-10′-((2,4-difluorobenzyl)carbamoyl)-3,3′-dimethyl-1′,11′-dioxo-1′,4′,5′,11′-tetrahydro-3′H,4H,7′H-spiro[isoxazole-5,6′-[2,7]methanopyrido[1,2-a][1,4]diazonin]-12′-yl)oxy)methyl hexadecyl carbonate], the concentration for a half-maximal effect (EC50) in data set [1] is 16.7 nM. For the same compound, the CC50 at 5 days in data set [2] was at least 50000 nM.

`CCCCCCCCCCCCCCCCOC(=O)OCOc1c2n(cc(C(=O)NCc3ccc(F)cc3F)c1=O)[C@@H]1CN(C2=O)[C@@H](C)CC[C@]12CC(OC)=NO2` [Example 195, (((3′S,5S,7′R)-10′-((2,4-difluorobenzyl)carbamoyl)-3-methoxy-3′-methyl-1′,11′-dioxo-1′,4′˜5′,11′-tetrahydro-3′H,4H,7′H-spiro[isoxazole-5,6′-[2,7]methanopyrido[1,2-a][1,4]diazonin]-12′-yl)oxy)methyl hexadecyl carbonate]: the 50% effective concentration (EC50) in data set [1] was 33.5 nM. Moreover, the CC50 at 5 days in data set [2] is at least 50000 nM.

Turning to `CCCCCCCCCCCCCCCCCCOC(=O)OCOc1c2n(cc(C(=O)NCc3ccc(F)cc3F)c1=O)[C@@H]1CN(C2=O)[C@@H](C)CC[C@]12CC(C)=NO2` [Example 196, (((3′S,5S,7′R)-10′-((2,4-difluorobenzyl)carbamoyl)-3,3′-dimethyl-1′,11′-dioxo-1′,4′,5′,11′-tetrahydro-3′H,4H,7′H-spiro[isoxazole-5,6′-[2,7]methanopyrido[1,2-a][1,4]diazonin]-12′-yl)oxy)methyl octadecyl carbonate], in data set [1], the EC50 came out at 18.4 nM. Moreover, the cytotoxic concentration (CC50) at 5 days in data set [2] is at least 50000 nM.

On to `CCCCCCCCCCCCCCCCCCOC(=O)OCOc1c2n(cc(C(=O)NCc3ccc(F)cc3F)c1=O)[C@@H]1CN(C2=O)[C@@H](C)CC[C@]12CC(OC)=NO2` [Example 197, (((3′S,5S,7′R)-10′-((2,4-difluorobenzyl)carbamoyl)-3-methoxy-3′-methyl-1′,11′-dioxo-1′,4′,5′,11′-tetrahydro-3′H,4H,7′H-spiro[isoxazole-5,6′-[2,7]methanopyrido[1,2-a][1,4]diazonin]-12′-yl)oxy)methyl octadecyl carbonate], for which the concentration for a half-maximal effect (EC50) in data set [1] was 41.2 nM. Also, in data set [2], the CC50 at 5 days is at least 50000 nM.

As to `COC1=NO[C@@]2(CC[C@H](C)N3C[C@H]2n2cc(C(=O)NCc4ccc(F)cc4F)c(=O)c(OCOC(=O)OC(C)C)c2C3=O)C1` [Example 198, (((3′S,5S,7′R)-10′-((2,4-difluorobenzyl)carbamoyl)-3-methoxy-3′-methyl-1′,11′-dioxo-1′,4′,5′,11′-tetrahydro-3′H,4H,7′H-spiro[isoxazole-5,6′-[2,7]methanopyrido[1,2-a][1,4]diazonin]-12′-yl)oxy)methyl isopropyl carbonate], in data set [1], the EC50 was found to be 6.29 nM. Further, the 50% cytotoxic concentration (CC50) at 5 days in data set [2] was at least 50000 nM.

For `CC1=NO[C@@]2(CC[C@H](C)N3C[C@H]2n2cc(C(=O)NCc4ccc(F)cc4F)c(=O)c(OCOC(=O)OCC(C)C)c2C3=O)C1` [Example 199, (((3′S,5S,7′R)-10′-((2,4-difluorobenzyl)carbamoyl)-3,3′-dimethyl-1′,11′-dioxo-1′,4′,5′,11′-tetrahydro-3′H,4H,7′H-spiro[isoxazole-5,6′-[2,7]methanopyrido[1,2-a][1,4]diazonin]-12′-yl)oxy)methyl isobutyl carbonate], in data set [1], the EC50 was 3.87 nM. In data set [2], the CC50 at 5 days stood at 15500 nM.

With `COC1=NO[C@@]2(CC[C@H](C)N3C[C@H]2n2cc(C(=O)NCc4ccc(F)cc4F)c(=O)c(OCOC(=O)OCC(C)C)c2C3=O)C1` [Example 200, (((3′S,5S,7′R)-10′-((2,4-difluorobenzyl)carbamoyl)-3-methoxy-3′-methyl-1′,11′-dioxo-1′,4′,5′,11′-tetrahydro-3′H,4H,7′H-spiro[isoxazole-5,6′-[2,7]methanopyrido[1,2-a][1,4]diazonin]-12′-yl)oxy)methyl isobutyl carbonate], in data set [1], the EC50 is 1.9 nM. In addition, in data set [2], the 50% cytotoxic concentration (CC50) at 5 days was 15200 nM.

With `CC1=NO[C@@]2(CC[C@H](C)N3C[C@H]2n2cc(C(=O)NCc4ccc(F)cc4F)c(=O)c(OCOC(=O)OCCC(C)C)c2C3=O)C1` [Example 201, (((3′S,5S,7′R)-10′-((2,4-difluorobenzyl)carbamoyl)-3,3′-dimethyl-1′,11′-dioxo-1′,4′,5′,11′-tetrahydro-3′H,4H,7′H-spiro[isoxazole-5,6′-[2,7]methanopyrido[1,2-a][1,4]diazonin]-12′-yl)oxy)methyl isopentyl carbonate], in data set [1], the 50% effective concentration (EC50) came out at 4.47 nM. Also, in data set [2], the cytotoxic concentration (CC50) at 5 days amounted to 16900 nM.

For `COC1=NO[C@@]2(CC[C@H](C)N3C[C@H]2n2cc(C(=O)NCc4ccc(F)cc4F)c(=O)c(OCOC(=O)OCCC(C)C)c2C3=O)C1` [Example 202, (((3′S,5S,7′R)-10′-((2,4-difluorobenzyl)carbamoyl)-3-methoxy-3′-methyl-1′,11′-dioxo-1′,4′,5′,11′-tetrahydro-3′H,4H,7′H-spiro[isoxazole-5,6′-[2,7]methanopyrido[1,2-a][1,4]diazonin]-12′-yl)oxy)methyl isopentyl carbonate], the half-maximal effective concentration (EC50) in data set [1] was determined as 2.71 nM. For the same compound, the CC50 at 5 days in data set [2] is 21600 nM.

Turning to `CC1=NO[C@@]2(CC[C@H](C)N3C[C@H]2n2cc(C(=O)NCc4ccc(F)cc4F)c(=O)c(OCOC(=O)OCCCC(C)C)c2C3=O)C1` [Example 203, (((3′S,5S,7′R)-10′-((2,4-difluorobenzyl)carbamoyl)-3,3′-dimethyl-1′,11′-dioxo-1′,4′,5′,11′-tetrahydro-3′H,4H,7′H-spiro[isoxazole-5,6′-[2,7]methanopyrido[1,2-a][1,4]diazonin]-12′-yl)oxy)methyl (4-methylpentyl) carbonate], the 50% effective concentration (EC50) in data set [1] is 3.56 nM. In data set [2], the CC50 at 5 days turned out to be 26400 nM.

On to `COC1=NO[C@@]2(CC[C@H](C)N3C[C@H]2n2cc(C(=O)NCc4ccc(F)cc4F)c(=O)c(OCOC(=O)OCCCC(C)C)c2C3=O)C1` [Example 204, (((3′S,5S,7′R)-10′-((2,4-difluorobenzyl)carbamoyl)-3-methoxy-3′-methyl-1′,11′-dioxo-1′,4′,5′,11′-tetrahydro-3′H,4H,7′H-spiro[isoxazole-5,6′-[2,7]methanopyrido[1,2-a][1,4]diazonin]-12′-yl)oxy)methyl (4-methylpentyl) carbonate], for which the EC50 in data set [1] was found to be 3.82 nM. Also, the cytotoxic concentration (CC50) at 5 days in data set [2] worked out at 29800 nM.
